How the values were obtained:
HBV [1] = assay: Inhibition of intracellular HBV virus invasion, HBeAg ELISA analysis; assay type: cell-based; settings: 20 µM, HepG2-NTCP cell line, HBV 3000 Geq/cell, O.D. at 450 nm
Description: (§1) In order to evaluate the ability to inhibit intracellular HBV virus entry (invasion), Enzyme-linked immunosorbent assay (ELISA) analysis to measure HBeAg, which is associated with high infectivity as an antigen in the HBV virus core portion, and Southern blot analysis to measure DNA of HBV were performed.
(§2) Specifically, the HepG2-NTCP cell line was cultured on a 6-well plate, incubation was performed overnight, HBV inhibitors were treated at a concentration of 20 µM, and the positive control Myrcludex-B (MyrB) was treated at a concentration of 200 nM, followed by culture for 24 hours. After HBV infection into the cells to make HBV 3000 genome equivalent per ml/cell (Geq/cell), the cell culture medium was replaced (medium changing, MC) a day after the viral infection to remove the virus unattached to cell membranes. In order to measure an amount of virus that entered the cell, medium changing (MC) was performed once more 4 days after viral infection. 2 days after replacement, HBeAg ELISA analysis was performed using a supernatant, and Southern blot analysis was performed with cell pellets.
HBeAg ELISA analysis was performed using an HBeAg ELISA kit (sanbio, Wantai HBeAg ELISA, cat#WB-2496) for the supernatant obtained by the method in Experimental Example 4-1.
First, a negative control group (Mock), positive control group (MyrB), and samples according to the present disclosure were loaded, by 50 µl each to be triplicate, onto a 96-well plate coated with capture Ab. In this case, Example 1 (LCA-ILE), Example 44 (LCA-Val), Example 52 (LCA-Tyr), Example 51 (LCA-Ser), Example 55 (LCA-Glu), Example 2 (UDCA-Ile), Example 3 (UDCA-Val), Example 25 (LCA-Val-Trp), Example 10 (DCA-Ile), Comparative Example 1 (LCA), and Comparative Example 2 (UDCA) were used as the sample.
The HRP-conjugated detection antibody was loaded into each well by 50 µl, followed by a reaction at 37°C for 30 minutes. Washing buffer (1X PBS, 0.5% Tween20) was added by 200 µl, and washing was performed 5 times. 50 µl of chromogen solution A and 50 µl of chromogen solution B were added to each well, and a reaction was carried out in the darkness at 37°C for 15 minutes. The stop solution was added to each well by 50 µl each to stop the reaction, and the amount of HBeAg was measured by measuring the absorbance (optical density, O.D.) level in the 450 nm wavelength band.

HBV [2] = assay: Inhibition of intracellular HBV virus invasion, Southern blot analysis; assay type: cell-based; settings: for amount of HBeAg DNA detected compared to the negative control group (Mock): 20 µM, HepG2-NTCP cell line, HBV 3000 Geq/cell; for activity at 20 µM: Hepatitis B virus, read-out: relative replication rate of quantified HBeAg DNA to the negative control group (Mock), 20 µM, HepG2-NTCP cell line, HBV 3000 Geq/cell
Description: as §1, §2
For the cell pellet obtained by the method of Experimental Example 4-1, Southern blot analysis for measurement of […] DNA was performed using Example 1 (LCA-Ile), Example 44 (LCA-Val), Example 52 (LCA-Tyr), Example 51 (LCA-Ser), Example 55 (LCA-Glu), Example 2 (UDCA-Ile), Example 3 (UDCA-Val), Example 25 (LCA-Val-Trp), Example 10 (DCA-Ile), Comparative Example 1 (LCA), and Comparative Example 2 (UDCA).
First, the cell pellets were pipetted with 100 µl of HEPES lysis buffer (10 mM HEPES, 100 mM NaCl, 1 mM EDTA, 1% NP-40), placed on ice for 20 minutes, and then centrifuged with a centrifuge under the conditions at 4°C and 13000 rpm. After transferring the supernatant only to the new microtube, 4.5 µl of nuclease buffer I (10 mM CaCl2, 12 mM MgCl2, DNase 10 units) was added to carry out a reaction at 37°C for 2 hours, and 40 µl of 26% PEG solution was added, followed by a reaction on ice for 1 hour. After centrifuging with the centrifuge at 4°C and 13000 rpm for 30 minutes, and the supernatant was removed cleanly. After releasing the pellets with 100 µl of nuclease buffer II (10 mM Tris, 8 mM CaCl2, 6mM MgCl2), 287.5 µl of 0.5% SDS buffer (25 mM Tris, 10 mM EDTA, 0.5% SDS, 100 mM NaCl) was added, and 12.5 µl of 20 mg/ml proteinase K was added, followed by a reaction at 37°C for 2 hours. 400 µl of phenol-chloroform-isoamyl alcohol was added, centrifugation was performed at room temperature at 13000 rpm after voltexing, the supernatant was transferred to a new tube, 40 µl of 3 M NaOAc was added, and 800 µl of 100% ethanol was added for inverting, followed by a reaction overnight at -20°C. After performing centrifugation at 4°C and 13000 rpm for 30 minutes, 800 µl of 70% ethanol was added and mixed to the pellet obtained by removing the supernatant, centrifugation was performed at 4°C and 13000 rpm for 10 minutes, and then the supernatant was discarded. The ethanol was dried for 5 minutes to leave only the HBV DNA pellets, and then the pellets were dissolved again in 15 µl of TE buffer (10 mM Tris, 1 mM EDTA). HBV DNA samples were loaded in 1% agarose gel, and electrophoresis was performed. It was then immersed in denature buffer (0.25 N NaOH, 1 M NaCl) for 30 minutes to denature dsDNA of HBV into ssDNA. The DNA in the gel was transferred to a Nylon membrane using a transfer buffer (0.4 M NaOH), the membrane was soaked with a 2X SSC buffer (sigma, cat# 85639) for neutralization, followed by drying in air. The membrane was immersed in a church buffer (10% BSA, 0.5 M EDTA, 1 M NaPi, 20% SDS), and the radioisotopes were hybridized using a Mega prime kit (GE healthcare, RPN1607). After washing three times with washing buffer (2X SSC, 0.1% SDS), measurement was performed using radioisotope measurement equipment, and a relative replication rate (%) to the negative control group (Mock) was calculated and shown.

CC[C@@H](C)[C@H](NC(=O)CC[C@@H](C)[C@H]1CC[C@H]2[C@@H]3[C@@H](O)C[C@@H]4C[C@H](O)CC[C@]4(C)[C@H]3CC[C@]12C)C(=O)O [Example 2, (2S,3R)-2-((R)-4-((3R,5S,7S,8R,9S,10S,13R,14S,17R)-3,7-dihydroxy-10,13-dimethyl-hexadecahydro-1H-cyclopenta[a]phenanthren-17-yl)pentanamido)-3-methylpentanoic acid]
HBeAg absorbance level compared with Comparative Example 1 (LCA) and Comparative Example 2 (UDCA) (HBV [1]): lower
HBeAg absorbance level compared with the negative control group (Mock) (HBV [1]): relatively lower
amount of HBeAg DNA detected compared to the negative control group (Mock) (HBV [2]): relatively less amount
activity at 20 µM (HBV [2]): < 80%

CC(C)[C@H](NC(=O)CC[C@@H](C)[C@H]1CC[C@H]2[C@@H]3[C@@H](O)C[C@@H]4C[C@H](O)CC[C@]4(C)[C@H]3CC[C@]12C)C(=O)O [Example 3, (S)-2-((R)-4-((3R,5S,7S,8R,9S,10S,13R,14S,17R)-3,7-dihydroxy-10,13-dimethyl-hexadecahydro-1H-cyclopenta[a]phenanthren-17-yl)pentanamido)-3-methylbutanoic acid]
HBeAg absorbance level compared with Comparative Example 1 (LCA) and Comparative Example 2 (UDCA) (HBV [1]): lower
HBeAg absorbance level compared with the negative control group (Mock) (HBV [1]): relatively lower
amount of HBeAg DNA detected compared to the negative control group (Mock) (HBV [2]): relatively less amount
activity at 20 µM (HBV [2]): < 80%

CC[C@@H](C)[C@H](NC(=O)CC[C@@H](C)[C@H]1CC[C@H]2[C@@H]3CC[C@@H]4C[C@H](O)CC[C@]4(C)[C@H]3C[C@H](O)[C@]12C)C(=O)O [Example 10, (2S,3R)-2-((R)-4-((3R,5R,8R,9S,10S,12S,13R,14S,17R)-3,12-dihydroxy-10,13-dimethyl-hexadecahydro-1H-cyclopenta[a]phenanthren-17-yl)pentanamido)-3-methylpentanoic acid]
HBeAg absorbance level compared with Comparative Example 1 (LCA) and Comparative Example 2 (UDCA) (HBV [1]): lower
HBeAg absorbance level compared with the negative control group (Mock) (HBV [1]): relatively lower
amount of HBeAg DNA detected compared to the negative control group (Mock) (HBV [2]): relatively less amount
activity at 20 µM (HBV [2]): < 80%

CC(C)[C@H](NC(=O)CC[C@@H](C)[C@H]1CC[C@H]2[C@@H]3CC[C@@H]4C[C@H](O)CC[C@]4(C)[C@H]3CC[C@]12C)C(=O)N[C@@H](Cc1c[nH]c2ccccc12)C(=O)O [Example 25, (S)-2-((S)-2-((R)-4-((3R,5R,8R,9S,10S,13R,14S,17R)-3-hydroxy-10,13-dimethyl-hexadecahydro-1H-cyclopenta[a]phenanthren-17-yl)pentanamido)-3-methylbutanamido)-3-(1H-indol-3-yl)propanoic acid]
amount of HBeAg DNA detected compared to the negative control group (Mock) (HBV [2]): relatively less amount

CC(C)[C@H](NC(=O)CC[C@@H](C)[C@H]1CC[C@H]2[C@@H]3CC[C@@H]4C[C@H](O)CC[C@]4(C)[C@H]3CC[C@]12C)C(=O)O [Example 44, (S)-2-((R)-4-((3R,5R,8R,9S,10S,13R,14S,17R)-3-hydroxy-10,13-dimethyl-hexadecahydro-1H-cyclopenta[a]phenanthren-17-yl)pentanamido)-3-methylbutanoic acid]
HBeAg absorbance level compared with Comparative Example 1 (LCA) and Comparative Example 2 (UDCA) (HBV [1]): lower
HBeAg absorbance level compared with the negative control group (Mock) (HBV [1]): relatively lower
amount of HBeAg DNA detected compared to the negative control group (Mock) (HBV [2]): relatively less amount
activity at 20 µM (HBV [2]): < 80%

C[C@H](CCC(=O)N[C@@H](CO)C(=O)O)[C@H]1CC[C@H]2[C@@H]3CC[C@@H]4C[C@H](O)CC[C@]4(C)[C@H]3CC[C@]12C [Example 51, (S)-3-hydroxy-2-((R)-4-((3R,5R,8R,9S,10S,13R,14S,17R)-3-hydroxy-10,13-dimethyl-hexadecahydro-1H-cyclopenta[a]phenanthren-17-yl)pentanamido)propanoic acid]
HBeAg absorbance level compared with the negative control group (Mock) (HBV [1]): relatively lower

C[C@H](CCC(=O)N[C@@H](Cc1ccc(O)cc1)C(=O)O)[C@H]1CC[C@H]2[C@@H]3CC[C@@H]4C[C@H](O)CC[C@]4(C)[C@H]3CC[C@]12C [Example 52, (S)-2-((R)-4-((3R,5R,8R,9S,10S,13R,14S,17R)-3-hydroxy-10,13-dimethyl-hexadecahydro-1H-cyclopenta[a]phenanthren-17-yl)pentanamido)-3-(4-hydroxyphenyl)propanoic acid]
amount of HBeAg DNA detected compared to the negative control group (Mock) (HBV [2]): relatively less amount
activity at 20 µM (HBV [2]): < 80%

C[C@H](CCC(=O)N[C@@H](CCC(=O)O)C(=O)O)[C@H]1CC[C@H]2[C@@H]3CC[C@@H]4C[C@H](O)CC[C@]4(C)[C@H]3CC[C@]12C [Example 55, (S)-2-((R)-4-((3R,5R,8R,9S,10S,13R,14S,17R)-3-hydroxy-10,13-dimethyl-hexadecahydro-1H-cyclopenta[a]phenanthren-17-yl)pentanamido)pentanedioic acid]
amount of HBeAg DNA detected compared to the negative control group (Mock) (HBV [2]): relatively less amount

From patent publication EP4310093A1, “AMINO ACID DERIVATIVE, PREPARATION METHOD THEREFOR, AND PHARMACEUTICAL COMPOSITION FOR TREATING HEPATITIS, COMPRISING SAME” (priority 2021, dated 2022)
